Experimental data taken from patent publication US10029994B2, “Isoxazole hydroxamic acid compounds as LpxC inhibitors” (priority 2014, dated 2018).
pIC50: −log10 of the molar value. Like-named read-outs stand apart in the source and are kept apart here.

What was measured:
E. C. ATCC 29522 = assay: MIC in the presence of sub-inhibitory rifampicin (potentiation/synergy); type: cell-based, Escherichia coli; settings: +2 μg/ml rifampicin (RIF); broth microdilution, 35° C., 20 hours
Experimental: (§1) Bacterial isolates were cultivated from −70° C. frozen stocks by two consecutive overnight passages at 35° C. in ambient air on 5% blood agar (Remel, Lenexa, Kans.). Quality control strain, P. aeruginosa ATCC 27853, A. baumannii ATCC19606 and E. coli ATCC 25922 are from the American Type Culture Collection (ATCC; Rockville, Md.) and PAO1 was received from Dr. K. Poole.
(§2) Minimal Inhibitory Concentrations (MICs) were determined by the broth microdilution method in accordance with Clinical and Laboratories Institute (CLSI) guidelines (CLSI M100-S25, Performance Standards for Antimicrobial Susceptibility Testing; Twenty-fifth Informational Supplement). In brief, fresh bacterial overnight cultures were resuspended in sterile saline, adjusted to a 0.5 McFarland turbidity standard and then diluted 2000-fold in cation adjusted Mueller-Hinton Broth II (MHB; Remel BBL) to yield a final inoculum of approximately 5×10^5 colony-forming units (CFU)/mL. Two-fold serial dilutions of compounds were prepared in 100% dimethyl sulfoxide (DMSO) at 100-fold the highest final assay concentration; the resulting dilution series of compounds were diluted 1:10 with sterile water. Ten μl of the drug dilution series in 10% DMSO was transferred to microtiter wells and 90 μl of bacterial suspension was inoculated into the wells. For testing the ability of compounds to potentiate the activity of known antibiotics, the assay was modified as follows; known antibiotics were added to the bacterial inoculum at 1.1-fold the final assay concentration indicated in Table A. All inoculated microdilution trays were incubated in ambient air at 35° C. for 20 hours. Following incubation, assay plates were read in a microtiter plate reader at 600 nm and visually inspected to confirm the MIC endpoint well with the OD value. The lowest concentration of the compound that prevented visible growth was recorded as the MIC. Performance of the assay was monitored by testing ciprofloxacin against the laboratory quality control strain in accordance with guidelines of the CLSI.

P. aeruginosa LpxC = target: T1, P. aeruginosa LpxC (Pseudomonas aeruginosa, UniProt P47205); assay: P. aeruginosa LpxC Inhibition Assay (LC-MS/MS); type: biochemical; settings: 1 nM P. aeruginosa LpxC, 30 min pre-incubation, 2 μM UDP-3-O-(R-3-hydroxydecanoyl)-GlcNAc, pH 7.5
T1 construct: made in house
T1 sequence (P47205 1-303): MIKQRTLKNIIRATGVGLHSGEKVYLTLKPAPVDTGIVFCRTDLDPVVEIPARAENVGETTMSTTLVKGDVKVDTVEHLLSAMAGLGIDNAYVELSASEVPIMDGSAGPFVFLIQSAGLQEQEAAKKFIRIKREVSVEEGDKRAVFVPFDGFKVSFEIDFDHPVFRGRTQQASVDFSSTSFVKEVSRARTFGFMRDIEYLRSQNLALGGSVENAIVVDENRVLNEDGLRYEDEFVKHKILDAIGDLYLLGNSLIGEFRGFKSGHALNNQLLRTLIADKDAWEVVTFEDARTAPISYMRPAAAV
Description: P. aeruginosa LpxC Inhibition Assay
The P. aeruginosa LpxC protein is produced according to the general method of Hyland et al (Journal of Bacteriology 1997 179, 2029-2037: Cloning, expression and purification of UDP-3-O-acyl-GlcNAc deacetylase from Pseudomonas aeruginosa: a metalloamidase of the lipid A biosynthesis pathway). The LC-MS/MS method for quantitation of LpxC product was developed using an Agilent 1200 Capillary HPLC system coupled to an Applied Biosystems MDS Sciex 4000QTRAP mass spectrometer. Both instruments are controlled using the Applied Biosystems MDS Sciex Analyst software. LpxC reaction product (UDP-3-O—(R-3-hydroxyacyl)-glucosamine) was produced by hydrolysis of LpxC substrate catalyzed by P.a. LpxC and purified using reversed phase chromatography on a Phenomenex Luna C18(2) 4.6×50 mm column. An LpxC product calibration curve was generated to evaluate the sensitivity and dynamic range of the LC-MS/MS method. Briefly, compounds are pre-incubated with 1 nM P. aeruginosa LpxC for 30 min. at room temperature. Reactions are initiated by the addition of 2 μM UDP-3-O—(R-3-hydroxydecanoyl)-GlcNAc. Reactions are conducted in a 384-well plate with a total volume of 50 μL in each well containing 50 mM Sodium phosphate pH 7.5, 0.005% Trition X-100 for 20 min at room temperature. After quenching with 1.8% HOAc (5 μL of a 20% HOAc added to each well), reaction mixtures are analyzed using the LC-MS/MS method and peak areas are transformed into product concentration using a LpxC product calibration curve. Total activity (0% inhibition control) is obtained from reactions with no inhibitors and 100% inhibition control is the background using quenched samples before reaction starts. For IC50 determinations, peak areas are converted to percent inhibition in Microsoft Excel. Percent inhibition values are plotted vs. log compound concentration using XLfit. Data is fit to the four-parameter logistic equation using the non-linear regression algorithm in XLfit to return the IC50 and hill slope values.

P. A. PAO1 NB52019 = assay: MIC, broth microdilution (CLSI); type: cell-based, Pseudomonas aeruginosa; settings: Pseudomonas aeruginosa, read-out: P. A. PAO1 NB52019 MIC
Experimental: as §1, §2

A. B. ATCC 19606 [1] = assay: MIC in the presence of sub-inhibitory rifampicin (potentiation/synergy); type: cell-based, Acinetobacter baumannii; settings: +2 μg/ml rifampicin (RIF); broth microdilution, 35° C., 20 hours
Experimental: as §1, §2

E. C. ATCC 25922 = assay: MIC, broth microdilution (CLSI); type: cell-based, Escherichia coli; settings: Escherichia coli, ATCC25922, 20 h, read-out: E. C. ATCC 25922 MIC
Experimental: as §1, §2

A. B. ATCC 19606 [2] = assay: MIC, broth microdilution (CLSI); type: cell-based, Acinetobacter baumannii; settings: Acinetobacter baumannii, read-out: A. B. ATCC 19606 MIC
Experimental: as §1, §2

[3] = PAO1, broth microdilution, 35° C., 20 hours
[4] = broth microdilution, 35° C., 20 hours
[5] = ATCC19606, broth microdilution, 35° C., 20 hours

SMILES	E. C. ATCC 29522 (+2 μg/ml RIF) MIC (E. C. ATCC 29522) [µg/mL]	pIC50 (P. aeruginosa LpxC)	MIC (P. A. PAO1 NB52019; [3]) [µg/mL]	A. B. ATCC 19606 (+2 μg/ml RIF) MIC (A. B. ATCC 19606 [1]) [µg/mL]	MIC (E. C. ATCC 25922; [4]) [µg/mL]	MIC (A. B. ATCC 19606 [2]; [5]) [µg/mL]	MIC (P. A. PAO1 NB52019; PAO1, 20 h) [µg/mL]	MIC (E. C. ATCC 25922) [µg/mL]	MIC (A. B. ATCC 19606 [2]; ATCC19606, 20 h) [µg/mL]
C[C@@H](O)Cc1ccc(C#Cc2cc(CCC(C)(C(=O)NO)S(C)(=O)=O)no2)cc1 (stereo partly drawn) [Compound 2.5, N-hydroxy-4-(5-((4-((R)-2-hydroxypropyl)phenyl)ethynyl)isoxazol-3-yl)-2-methyl-2-(methylsulfonyl)butanamide]	0.125	> 9.00	1	0.5	0.25	> 64	–	–	–
CO[C@H](CO)c1ccc(C#Cc2cc(CC[C@](C)(C(=O)NO)S(C)(=O)=O)no2)cc1 [Compound 2.6, (R)—N-hydroxy-4-(5-((4-((S)-2-hydroxy-1-methoxyethyl)phenyl)ethynyl)-isoxazol-3-yl)-2-methyl-2-(methylsulfonyl)butanamide]	0.125	> 9.00	0.25	1	0.5	> 64	–	–	–
C[C@@](CCc1cc(C#Cc2ccc([C@H](O)CO)cc2)on1)(C(=O)NO)S(C)(=O)=O [Compound 2.7, (R)-4-(5-((4-((S)-1,2-dihydroxyethyl)phenyl)ethynyl)isoxazol-3-yl)-N-hydroxy-2-methyl-2-(methylsulfonyl)butanamide]	0.125	> 9.00	0.25	6	1	> 64	–	–	–
C[C@@](CCc1cc(C#Cc2ccc([C@@H](O)CO)cc2)on1)(C(=O)NO)S(C)(=O)=O [Compound 2.8, (R)-4-(5-((4-((R)-1,2-dihydroxyethyl)phenyl)ethynyl)isoxazol-3-yl)-N-hydroxy-2-methyl-2-(methylsulfonyl)butanamide]	0.125	> 9.00	0.25	1	1	> 64	–	–	–
Cc1cc([C@H](O)[C@](C)(NCc2cc(C#CC3CC3)on2)C(=O)NO)no1 [Compound 3.1, (2S,3R)-2-(((5-(cyclopropylethynyl)isoxazol-3-yl)methyl)amino)-N,3-dihydroxy-2-methyl-3-(5-methylisoxazol-3-yl)propanamide]	≤0.06	> 9.00	–	≤0.06	–	–	0.5	1	> 64
Cc1cc([C@H](O)[C@](C)(NCc2cc(C#CC3CCC3)on2)C(=O)NO)no1 [Compound 3.2, (2S,3R)-2-(((5-(cyclobutylethynyl)isoxazol-3-yl)methyl)amino)-N,3-dihydroxy-2-methyl-3-(5-methylisoxazol-3-yl)propanamide]	0.5	> 9.00	1	≤0.06	1	> 64	–	–	–
Cc1cc([C@H](O)[C@](C)(NCc2cc(C#Cc3ccccc3)on2)C(=O)NO)no1 [Compound 3.3, (2S,3R)—N,3-dihydroxy-2-methyl-3-(5-methylisoxazol-3-yl)-2-(((5-(phenylethynyl)isoxazol-3-yl)methyl)amino)propanamide]	0.06	> 9.00	0.25	≤0.06	≤ 0.06	64	–	–	–
CC(NCc1cc(C#Cc2ccccc2)on1)(C(=O)NO)C(O)c1cc(CO)on1 (stereo not drawn) [Compound 3.4, N,3-dihydroxy-3-(5-(hydroxymethyl)isoxazol-3-yl)-2-methyl-2-(((5-(phenylethynyl)isoxazol-3-yl)methyl)amino)propanamide]	≤0.06	> 9.00	0.5	0.125	1	> 64	–	–	–
COCCCCC#Cc1cc(CN[C@](C)(C(=O)NO)[C@@H](O)c2cc(C)on2)no1 [Compound 3.5, (2S,3R)—N,3-dihydroxy-2-(((5-(6-methoxyhex-1-yn-1-yl)isoxazol-3-yl)methyl)amino)-2-methyl-3-(5-methylisoxazol-3-yl)propanamide]	2	8.52	16	1	16	32	–	–	–
CC(NCc1cc(C#CC2CC2)on1)(C(=O)NO)C(O)c1cc(C2CC2)on1 (stereo not drawn) [Compound 3.6, 2-(((5-(cyclopropylethynyl)isoxazol-3-yl)methyl)amino)-3-(5-cyclopropylisoxazol-3-yl)-N, 3-dihydroxy-2-methylpropanamide]	0.5	8.70	4	0.125	2	64	–	–	–
CC/C=C/c1cc(CC[C@](C)(C(=O)NO)S(C)(=O)=O)no1 [Compound 4.1, (R,E)-4-(5-(but-1-en-1-yl)isoxazol-3-yl)-N-hydroxy-2-methyl-2-(methylsulfonyl)butanamide]	0.125	> 9.00	0.5	1	8	> 64	–	–	–
C/C=C(\C)c1cc(CC[C@](C)(C(=O)NO)S(C)(=O)=O)no1 [Compound 4.3-1, (R,E)-4-(5-(but-2-en-2-yl)isoxazol-3-yl)-N-hydroxy-2-methyl-2-(methylsulfonyl)butanamide]	0.5	8.52	–	8	–	–	2	32	> 64
C[C@@](CCc1cc(/C(F)=C/C2CC2)on1)(C(=O)NO)S(C)(=O)=O [Compound 4.5-1, (R,Z)-4-(5-(2-cyclopropyl-1-fluorovinyl)isoxazol-3-yl)-N-hydroxy-2-methyl-2-(methylsulfonyl)butanamide]	0.25	> 9.00	0.25	0.25	2	> 64	–	–	–
